{
  "source": "paper PMC5218480",
  "about": "(PLoS ONE, 2017)",
  "test_system": "MV-4-11 cells",
  "test": "Gene expression microarray analysis (Affymetrix PrimeView) and GSEA",
  "assay_type": "cell-based, human",
  "set-up": "RFU PODN (11730768_x_at) / Fold change /veh PODN (11730768_x_at) / RFU LINC00158 (11744669_a_at) / Fold change /veh LINC00158 (11744669_a_at) / RFU DUSP10 (11751237_a_at) / Fold change /veh DUSP10 (11751237_a_at) / RFU ID3 (11757404_x_at) / Fold change /veh ID3 (11757404_x_at) / RFU PLEKHG5 (11737974_s_at) / Fold change /veh PLEKHG5 (11737974_s_at) / RFU LRRC4B (11730491_at) / Fold change /veh LRRC4B (11730491_at) / RFU GIMAP4 (11747438_a_at) / Fold change /veh GIMAP4 (11747438_a_at) / RFU KRT8 (11758183_x_at) / Fold change /veh KRT8 (11758183_x_at) / RFU CNN1 (11734310_a_at) / Fold change /veh CNN1 (11734310_a_at) / RFU VPS37D (11726825_at) / Fold change /veh VPS37D (11726825_at) / RFU C10orf10 (11716522_x_at) / Fold change /veh C10orf10 (11716522_x_at) / RFU KIR2DL2 /// KIR2DL4 /// KIR2DL5A /// KIR2DL5B /// KIR2DS1 /// KIR2DS2 /// KIR2DS3 /// KIR2DS4 /// KIR3DL3 /// KIR3DL3 /// KIR3DS1 (11738374_at) / Fold change /veh KIR2DL2 /// KIR2DL4 /// KIR2DL5A /// KIR2DL5B /// KIR2DS1 /// KIR2DS2 /// KIR2DS3 /// KIR2DS4 /// KIR3DL3 /// KIR3DL3 /// KIR3DS1 (11738374_at) / RFU C1QL1 (11718748_at) / Fold change /veh C1QL1 (11718748_at) / RFU TMPRSS4 (11747572_a_at) / Fold change /veh TMPRSS4 (11747572_a_at) / RFU HAMP (11756126_x_at) / Fold change /veh HAMP (11756126_x_at) / RFU RNFT2 (11725882_a_at) / Fold change /veh RNFT2 (11725882_a_at) / RFU NR4A2 (11747474_a_at) / Fold change /veh NR4A2 (11747474_a_at) / RFU ABCC12 (11746883_a_at) / Fold change /veh ABCC12 (11746883_a_at) / RFU TMEM136 (11760407_x_at) / Fold change /veh TMEM136 (11760407_x_at) / RFU CLDN22 /// WWC2 (11732394_at) / Fold change /veh CLDN22 /// WWC2 (11732394_at) / RFU HLA-DPB1 (11760878_x_at) / Fold change /veh HLA-DPB1 (11760878_x_at) / RFU SPINT1 (11716480_a_at) / Fold change /veh SPINT1 (11716480_a_at) / RFU GAP43 (11754022_s_at) / Fold change /veh GAP43 (11754022_s_at) / RFU A4GNT (11735810_at) / Fold change /veh A4GNT (11735810_at) / RFU PRB3 (11715151_x_at) / Fold change /veh PRB3 (11715151_x_at) / RFU TUBB4B (11761932_at) / Fold change /veh TUBB4B (11761932_at) / RFU CAPN14 (11732068_a_at) / Fold change /veh CAPN14 (11732068_a_at) / RFU TMCC2 (11721928_a_at) / Fold change /veh TMCC2 (11721928_a_at) / RFU IRGQ (11745062_a_at) / Fold change /veh IRGQ (11745062_a_at) / RFU FAM174B (11720279_a_at) / Fold change /veh FAM174B (11720279_a_at) / RFU TMPRSS4 (11748680_a_at) / Fold change /veh TMPRSS4 (11748680_a_at) / RFU FAM212B (11763350_a_at) / Fold change /veh FAM212B (11763350_a_at) / RFU PLEKHG5 (11743358_a_at) / Fold change /veh PLEKHG5 (11743358_a_at) / RFU ZSCAN30 (11745921_a_at) / Fold change /veh ZSCAN30 (11745921_a_at) / RFU CMKLR1 (11741424_a_at) / Fold change /veh CMKLR1 (11741424_a_at) / RFU LOC101060620 /// MAPK8IP1 (11723275_at) / Fold change /veh LOC101060620 /// MAPK8IP1 (11723275_at) / RFU SPTSSB (11747773_x_at) / Fold change /veh SPTSSB (11747773_x_at) / RFU PRSS12 (11739890_at) / Fold change /veh PRSS12 (11739890_at) / RFU BIN1 (11741810_x_at) / Fold change /veh BIN1 (11741810_x_at) / RFU WNT11 (11732464_a_at) / Fold change /veh WNT11 (11732464_a_at) / RFU C10orf10 (11716521_a_at) / Fold change /veh C10orf10 (11716521_a_at) / RFU C5orf56 (11738089_at) / Fold change /veh C5orf56 (11738089_at) / RFU CYB561 (11721691_x_at) / Fold change /veh CYB561 (11721691_x_at) / RFU ANKRD19P (11752326_a_at) / Fold change /veh ANKRD19P (11752326_a_at) / RFU OR2T12 /// OR2T33 /// OR2T8 (11738714_s_at) / Fold change /veh OR2T12 /// OR2T33 /// OR2T8 (11738714_s_at) / RFU VCAN (11748164_a_at) / Fold change /veh VCAN (11748164_a_at) / RFU JSRP1 (11732532_at) / Fold change /veh JSRP1 (11732532_at) / RFU KRTAP10-11 (11738290_x_at) / Fold change /veh KRTAP10-11 (11738290_x_at) / RFU MYO3A (11730013_a_at) / Fold change /veh MYO3A (11730013_a_at) / RFU EBF3 (11725865_a_at) / Fold change /veh EBF3 (11725865_a_at) / RFU CAMK2N1 (11719241_x_at) / Fold change /veh CAMK2N1 (11719241_x_at) / RFU C5orf56 (11738088_a_at) / Fold change /veh C5orf56 (11738088_a_at) / RFU OLFML3 (11715873_a_at) / Fold change /veh OLFML3 (11715873_a_at) / RFU LOC100653217 /// NTM (11731650_a_at) / Fold change /veh LOC100653217 /// NTM (11731650_a_at) / RFU MAPK11 (11762145_a_at) / Fold change /veh MAPK11 (11762145_a_at) / RFU FIZ1 (11724087_x_at) / Fold change /veh FIZ1 (11724087_x_at) / RFU OASL (11726364_x_at) / Fold change /veh OASL (11726364_x_at) / RFU SOX15 (11748057_x_at) / Fold change /veh SOX15 (11748057_x_at) / RFU CD79A (11719716_a_at) / Fold change /veh CD79A (11719716_a_at) / RFU HIST1H1D (11736915_at) / Fold change /veh HIST1H1D (11736915_at) / RFU CASKIN2 (11723855_a_at) / Fold change /veh CASKIN2 (11723855_a_at) / RFU LOC730098 (11760151_x_at) / Fold change /veh LOC730098 (11760151_x_at) / RFU OR4N2 (11742367_at) / Fold change /veh OR4N2 (11742367_at) / RFU PRRT2 (11749266_a_at) / Fold change /veh PRRT2 (11749266_a_at) / RFU SNX32 (11753110_a_at) / Fold change /veh SNX32 (11753110_a_at) / RFU CDHR5 (11726645_a_at) / Fold change /veh CDHR5 (11726645_a_at) / RFU RCAN1 (11760418_a_at) / Fold change /veh RCAN1 (11760418_a_at) / RFU FAM167A (11723789_a_at) / Fold change /veh FAM167A (11723789_a_at) / RFU FAM26E (11764081_at) / Fold change /veh FAM26E (11764081_at) / RFU ISYNA1 (11749810_s_at) / Fold change /veh ISYNA1 (11749810_s_at) / RFU ACY1 (11761880_at) / Fold change /veh ACY1 (11761880_at) / RFU 11764098_at / Fold change /veh 11764098_at / RFU SAMD14 (11745864_x_at) / Fold change /veh SAMD14 (11745864_x_at) / RFU NPB (11741838_a_at) / Fold change /veh NPB (11741838_a_at) / RFU TMPRSS6 (11731388_a_at) / Fold change /veh TMPRSS6 (11731388_a_at) / RFU KRTAP10-2 (11738614_at) / Fold change /veh KRTAP10-2 (11738614_at) / RFU ARHGAP8 /// PRR5-ARHGAP8 (11727945_x_at) / Fold change /veh ARHGAP8 /// PRR5-ARHGAP8 (11727945_x_at) / RFU KRTAP5-7 /// NADSYN1 (11734609_at) / Fold change /veh KRTAP5-7 /// NADSYN1 (11734609_at) / RFU RASL12 (11751679_a_at) / Fold change /veh RASL12 (11751679_a_at) / RFU CDKN2B (11736163_a_at) / Fold change /veh CDKN2B (11736163_a_at) / RFU PRF1 (11729649_at) / Fold change /veh PRF1 (11729649_at) / RFU, ZNF638 /// ZNF638-IT1 / Fold change vs veh, ZNF638 /// ZNF638-IT1 / RFU, PANK3 / Fold change vs veh, PANK3 / RFU, SH3YL1 / Fold change vs veh, SH3YL1 / RFU, ZEB2 / Fold change vs veh, ZEB2 / RFU, NRIP1 / Fold change vs veh, NRIP1 / RFU, PTTG1IP / Fold change vs veh, PTTG1IP / RFU, CAPN2 / Fold change vs veh, CAPN2 / RFU, MED14 / Fold change vs veh, MED14 / RFU, SNORA58 / Fold change vs veh, SNORA58 / RFU, C1orf63 / Fold change vs veh, C1orf63 / RFU, LRRFIP1 / Fold change vs veh, LRRFIP1 / RFU, NDUFAF7 / Fold change vs veh, NDUFAF7 / RFU, SLC12A2 / Fold change vs veh, SLC12A2 / RFU, IBTK / Fold change vs veh, IBTK / RFU, ESF1 / Fold change vs veh, ESF1 / Fold change vs veh, TMEM50B / RFU, TAOK1 / Fold change vs veh, TAOK1 / RFU, ACBD3 / Fold change vs veh, ACBD3 / RFU, TMA16 / Fold change vs veh, TMA16 / RFU, RWDD3 / Fold change vs veh, RWDD3 / RFU, BCAT1 / Fold change vs veh, BCAT1 / RFU, EDEM3 / Fold change vs veh, EDEM3 / RFU, TMEM33 / Fold change vs veh, TMEM33 / RFU, WDR75 / Fold change vs veh, WDR75 / RFU, AHCTF1 / Fold change vs veh, AHCTF1 / RFU, TFRC / Fold change vs veh, TFRC / RFU, ZDHHC17 / Fold change vs veh, ZDHHC17 / RFU, NOM1 / Fold change vs veh, NOM1 / RFU, ARL8B / Fold change vs veh, ARL8B / RFU, ZBTB11 / Fold change vs veh, ZBTB11 / RFU, TAMM41 / Fold change vs veh, TAMM41 / RFU, KIAA1704 /// LOC100996395 / Fold change vs veh, KIAA1704 /// LOC100996395 / RFU, ING1 / Fold change vs veh, ING1 / RFU, TRMT61B / Fold change vs veh, TRMT61B / RFU, FUBP3 / Fold change vs veh, FUBP3 / RFU, TP53 / Fold change vs veh, TP53 / RFU, TNKS2 / Fold change vs veh, TNKS2 / RFU, ZFP14 / Fold change vs veh, ZFP14 / RFU, ACTR2 / Fold change vs veh, ACTR2 / RFU, PPP3R1 / Fold change vs veh, PPP3R1 / RFU, PIK3R1 / Fold change vs veh, PIK3R1 / RFU, HNRNPA1 / Fold change vs veh, HNRNPA1 / RFU, RNF170 / Fold change vs veh, RNF170 / RFU, ZNF28 / Fold change vs veh, ZNF28 / RFU, RNGTT / Fold change vs veh, RNGTT / RFU, OGT / Fold change vs veh, OGT / RFU, BRD1 / Fold change vs veh, BRD1 / RFU, MARS / Fold change vs veh, MARS / RFU, ZNF655 / Fold change vs veh, ZNF655 / RFU, FAHD1 / Fold change vs veh, FAHD1 / RFU, BDP1 / Fold change vs veh, BDP1 / RFU, LRRCC1 / Fold change vs veh, LRRCC1 / RFU, ARID1A / Fold change vs veh, ARID1A / RFU, ZNF146 / Fold change vs veh, ZNF146 / RFU, ZNF330 / Fold change vs veh, ZNF330 / RFU, GPN3 / Fold change vs veh, GPN3 / RFU, C9orf123 / Fold change vs veh, C9orf123 / RFU, N4BP2L2 / Fold change vs veh, N4BP2L2 / RFU, ARFIP1 / Fold change vs veh, ARFIP1 / RFU, FAM179B / Fold change vs veh, FAM179B / RFU, BCL10 / Fold change vs veh, BCL10 / RFU, UHRF1BP1L / Fold change vs veh, UHRF1BP1L / RFU, BET1 / Fold change vs veh, BET1 / RFU, CNOT2 / Fold change vs veh, CNOT2 / RFU, ZNF268 / Fold change vs veh, ZNF268 / Fold change vs veh, ZNF507 / RFU, DGCR2 / Fold change vs veh, DGCR2 / RFU, WDSUB1 / Fold change vs veh, WDSUB1 / Fold change vs veh, HSP90B1 /// MIR3652 / RFU, ADSS / Fold change vs veh, ADSS / RFU, GK / Fold change vs veh, GK / RFU, ZNF148 / Fold change vs veh, ZNF148 / RFU, TAF9 / Fold change vs veh, TAF9 / RFU, SLC1A5 / Fold change vs veh, SLC1A5 / RFU, SLMO2 / Fold change vs veh, SLMO2 / RFU, ABCC4 / Fold change vs veh, ABCC4 / RFU, LOC101060439 /// RAP1B / Fold change vs veh, LOC101060439 /// RAP1B / RFU, RFX7 / Fold change vs veh, RFX7 / RFU, GTPBP10 / Fold change vs veh, GTPBP10 / RFU, CNEP1R1 / Fold change vs veh, CNEP1R1 / RFU, BIVM-ERCC5 /// ERCC5 / Fold change vs veh, BIVM-ERCC5 /// ERCC5 / RFU, ILF3 / Fold change vs veh, ILF3 / RFU 11762660_at / Fold change /veh 11762660_at / RFU VCAN (11757783_s_at) / Fold change /veh VCAN (11757783_s_at) / RFU DDX43 (11728927_at) / Fold change /veh DDX43 (11728927_at) / RFU KRT8 (11758188_x_at) / Fold change /veh KRT8 (11758188_x_at) / RFU NKD1 (11759106_at) / Fold change /veh NKD1 (11759106_at) / RFU SRD5A1 (11742802_a_at) / Fold change /veh SRD5A1 (11742802_a_at) / RFU TPSAB1 /// TPSB2 (11721975_s_at) / Fold change /veh TPSAB1 /// TPSB2 (11721975_s_at) / RFU GSTM3 (11746129_a_at) / Fold change /veh GSTM3 (11746129_a_at) / RFU IL23R (11737362_x_at) / Fold change /veh IL23R (11737362_x_at) / RFU TMEM51 (11727254_a_at) / Fold change /veh TMEM51 (11727254_a_at) / RFU PIWIL2 (11732686_x_at) / Fold change /veh PIWIL2 (11732686_x_at) / RFU ORM1 (11744905_x_at) / Fold change /veh ORM1 (11744905_x_at) / RFU CCDC152 (11743942_at) / Fold change /veh CCDC152 (11743942_at) / RFU ECM1 (11717891_a_at) / Fold change /veh ECM1 (11717891_a_at) / RFU IL23R (11748794_a_at) / Fold change /veh IL23R (11748794_a_at) / RFU TNFAIP8L3 (11732012_x_at) / Fold change /veh TNFAIP8L3 (11732012_x_at) / RFU MBOAT4 (11741988_at) / Fold change /veh MBOAT4 (11741988_at) / RFU 11764193_at / Fold change /veh 11764193_at / RFU TMEM53 (11763286_at) / Fold change /veh TMEM53 (11763286_at) / RFU MAGEB2 (11727129_at) / Fold change /veh MAGEB2 (11727129_at) / RFU TMEM200A (11744735_a_at) / Fold change /veh TMEM200A (11744735_a_at) / RFU CCDC152 (11751479_a_at) / Fold change /veh CCDC152 (11751479_a_at) / RFU FAM211A (11726209_a_at) / Fold change /veh FAM211A (11726209_a_at) / RFU RGS16 (11746705_a_at) / Fold change /veh RGS16 (11746705_a_at) / RFU VCAN (11755009_s_at) / Fold change /veh VCAN (11755009_s_at) / RFU RHOB (11743442_s_at) / Fold change /veh RHOB (11743442_s_at) / RFU RGS16 (11720943_a_at) / Fold change /veh RGS16 (11720943_a_at) / RFU RGS16 (11720944_at) / Fold change /veh RGS16 (11720944_at) / RFU, VPS4B / Fold change vs veh, VPS4B / RFU, CREB1 / Fold change vs veh, CREB1 / RFU, DNAJC13 / Fold change vs veh, DNAJC13 / RFU, GNAQ / Fold change vs veh, GNAQ / RFU, CDK5R1 / Fold change vs veh, CDK5R1 / RFU, ZRANB3 / Fold change vs veh, ZRANB3 / RFU, CUL4A / Fold change vs veh, CUL4A / RFU, CCNY / Fold change vs veh, CCNY / RFU, UFL1 / Fold change vs veh, UFL1 / RFU, COG3 / Fold change vs veh, COG3 / RFU, DIAPH2 / Fold change vs veh, DIAPH2 / RFU, SKA2 / Fold change vs veh, SKA2 / RFU, AFF3 / Fold change vs veh, AFF3 / RFU, LMF1 / Fold change vs veh, LMF1 / RFU, IPO11 / Fold change vs veh, IPO11 / RFU, DFFB / Fold change vs veh, DFFB / RFU, FOXP1 / Fold change vs veh, FOXP1 / RFU, CARD8 / Fold change vs veh, CARD8 / RFU, STRN3 / Fold change vs veh, STRN3 / RFU, ADK / Fold change vs veh, ADK / RFU, RASSF2 / Fold change vs veh, RASSF2 / RFU, WIPF1 / Fold change vs veh, WIPF1 / RFU, LARP1B / Fold change vs veh, LARP1B / RFU, RASA1 / Fold change vs veh, RASA1 / RFU, RB1 / Fold change vs veh, RB1 / RFU, PPFIA1 / Fold change vs veh, PPFIA1 / RFU, MAT2A / Fold change vs veh, MAT2A / RFU, CCT5 / Fold change vs veh, CCT5 / RFU, WDR92 / Fold change vs veh, WDR92 / RFU, CUX1 / Fold change vs veh, CUX1 / RFU, TTC7A / Fold change vs veh, TTC7A / RFU, TMEM135 / Fold change vs veh, TMEM135 / RFU, DEPTOR / Fold change vs veh, DEPTOR / RFU, CPM / Fold change vs veh, CPM / RFU, DNAJB6 / Fold change vs veh, DNAJB6 / RFU, CACNA2D3 / Fold change vs veh, CACNA2D3 / RFU, DTX4 / Fold change vs veh, DTX4 / RFU, TFCP2 / Fold change vs veh, TFCP2 / RFU, GMCL1 /// GMCL1P1 / Fold change vs veh, GMCL1 /// GMCL1P1 / RFU, AEBP2 / Fold change vs veh, AEBP2 / RFU, SNHG1 /// SNORD22 /// SNORD25 /// SNORD26 /// SNORD27 /// SNORD28 /// SNORD29 /// SNORD31 / Fold change vs veh, SNHG1 /// SNORD22 /// SNORD25 /// SNORD26 /// SNORD27 /// SNORD28 /// SNORD29 /// SNORD31 / Fold change (Aza/veh), C12orf56 (ProbeSet 11735607_a_at) / Fold change (ACY-1035/veh), C12orf56 (ProbeSet 11735607_a_at) / Fold change (Aza/veh), FGFR1OP (ProbeSet 11751329_s_at) / Fold change (ACY-1035/veh), FGFR1OP (ProbeSet 11751329_s_at) / Fold change (Aza/veh), VPS36 (ProbeSet 11739960_a_at) / Fold change (ACY-1035/veh), VPS36 (ProbeSet 11739960_a_at) / RFU SYPL1 (11715823_x_at) / Fold change /veh SYPL1 (11715823_x_at) / RFU IGFBP7 (11715501_s_at) / Fold change /veh IGFBP7 (11715501_s_at) / RFU REEP3 (11722064_at) / Fold change /veh REEP3 (11722064_at) / RFU IGLL1 (11728026_x_at) / Fold change /veh IGLL1 (11728026_x_at): dose or concentration left out as unconfirmed",
  "conditions": "ProbeSet 11734937_a_at; LIST B",
  "data": [
    {"smiles": "Nc1ncn([C@@H]2O[C@H](CO)[C@@H](O)[C@H]2O)c(=O)n1", "note": "[azacitidine]", "values": [
      {"measurement": "RFU, CNOT2", "value": 887.01, "unit": "RFU"}
    ]}
  ]
}
